Earlier results in patent US6156769A (priority 2000, dated 2000).

System: pruritus
Details: i.v. morphine

For `CN1CC[C@]23c4c5ccc(O)c4O[C@H]2[C@@H](O)C=C[C@H]3[C@H]1C5` [morphine], the generalized itching is given as “about 1 % of patients”.
